Measured values published in PubChem BioAssay AID2060904 (Molecular Pharmacology Branch, DTP, NCI, 2025).

Tested on: 349418-098-R-PDC complex spheroid viability
Assay: Anticancer human tumor 349418-098-R-PDC patient-derived lung adenocarcinoma cell line growth inhibition [RAS]
Details: for IC50: curve of first compound; for viability, T/C: stronger effect = lower value
In short: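 Multi-cell-type spheroids: tumor cells plus HUVEC endothelial cells and mesenchymal stem cells. RAS-pathway inhibitors were combined with targeted agents, each dosed in half-log steps down from clinical Cmax, or from 10 microM when Cmax was unknown.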

[1] = second compound 0.00316 µM, first compound 0.0316 µM
[2] = second compound 0.00316 µM, first compound 0.1 µM
[3] = second compound 0.01 µM, first compound 0.0316 µM
[4] = second compound 0.01 µM, first compound 0.1 µM
[5] = second compound 0.0316 µM, first compound 0.0316 µM
[6] = second compound 0.0316 µM, first compound 0.1 µM
[7] = second compound 0.1 µM, first compound 0.0316 µM
[8] = second compound 0.1 µM, first compound 0.1 µM
[9] = second compound 0.316 µM, first compound 0.0316 µM
[10] = second compound 0.316 µM, first compound 0.1 µM
[11] = second compound 1 µM, first compound 0.0316 µM
[12] = second compound 1 µM, first compound 0.1 µM
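Further: spheroids exposed to compound for seven days before viability readout.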

SMILES: Cc1nc(N2CCC3(CC2)COC(C)C3N)c(CO)nc1Sc1ccnc(N)c1Cl (stereo unspecified) + C=CC(=O)N1CCN(c2nc(OCC3CCCN3C)nc3c(F)c(-c4nc(N)cc(C)c4C(F)(F)F)c(Cl)cc23)C(C)C1
- IC50 (second compound 0.00316 µM): > 10 µM
- IC50 (second compound 0.01 µM): > 10 µM
- IC50 (second compound 0.0316 µM): > 10 µM
- IC50 (second compound 0.1 µM): > 10 µM
- IC50 (second compound 0.316 µM): > 10 µM
- IC50 (second compound 1 µM): > 10 µM
- viability, T/C [1]: 100%
- viability, T/C [2]: 83.6%
- viability, T/C (second compound 0.00316 µM, first compound 0.316 µM): 131%
- viability, T/C (second compound 0.00316 µM, first compound 1 µM): 86.9%
- viability, T/C (second compound 0.00316 µM, first compound 3.16 µM): 81.7%
- viability, T/C (second compound 0.00316 µM, first compound 10 µM): 102%
- viability, T/C [3]: 78.4%
- viability, T/C [4]: 80.5%
- viability, T/C (second compound 0.01 µM, first compound 0.316 µM): 92.5%
- viability, T/C (second compound 0.01 µM, first compound 1 µM): 92.5%
- viability, T/C (second compound 0.01 µM, first compound 3.16 µM): 104%
- viability, T/C (second compound 0.01 µM, first compound 10 µM): 98.3%
- viability, T/C [5]: 84.3%
- viability, T/C [6]: 107%
- viability, T/C (second compound 0.0316 µM, first compound 0.316 µM): 87.1%
- viability, T/C (second compound 0.0316 µM, first compound 1 µM): 73.6%
- viability, T/C (second compound 0.0316 µM, first compound 3.16 µM): 120%
- viability, T/C (second compound 0.0316 µM, first compound 10 µM): 99%
- viability, T/C [7]: 82.8%
- viability, T/C [8]: 64.9%
- viability, T/C (second compound 0.1 µM, first compound 0.316 µM): 92.5%
- viability, T/C (second compound 0.1 µM, first compound 1 µM): 87.3%
- viability, T/C (second compound 0.1 µM, first compound 3.16 µM): 81.2%
- viability, T/C (second compound 0.1 µM, first compound 10 µM): 82.9%
- viability, T/C [9]: 81%
- viability, T/C [10]: 89.2%
- viability, T/C (second compound 0.316 µM, first compound 0.316 µM): 73.4%
- viability, T/C (second compound 0.316 µM, first compound 1 µM): 81.7%
- viability, T/C (second compound 0.316 µM, first compound 3.16 µM): 86%
- viability, T/C (second compound 0.316 µM, first compound 10 µM): 87.1%
- viability, T/C [11]: 105%
- viability, T/C [12]: 76.5%
- viability, T/C (second compound 1 µM, first compound 0.316 µM): 95.8%
- viability, T/C (second compound 1 µM, first compound 1 µM): 108%
- viability, T/C (second compound 1 µM, first compound 3.16 µM): 88.1%
- viability, T/C (second compound 1 µM, first compound 10 µM): 105%

SMILES: CC(C)n1nc(-c2ccc3oc(N)nc3c2)c2c(N)ncnc21 + C=CC(=O)N1CCN(c2nc(OCC3CCCN3C)nc3c(F)c(-c4nc(N)cc(C)c4C(F)(F)F)c(Cl)cc23)C(C)C1
- IC50 (second compound 0.00316 µM): 0.00533 µM
- IC50 (second compound 0.01 µM): 0.00353 µM
- IC50 (second compound 0.0316 µM): 0.00324 µM
- IC50 (second compound 0.1 µM): 0.00399 µM
- IC50 (second compound 0.316 µM): 0.00307 µM
- IC50 (second compound 1 µM): 0.00364 µM
- viability, T/C (second compound 0.00316 µM, first compound 0.000316 µM): 85.2%
- viability, T/C (second compound 0.00316 µM, first compound 0.001 µM): 90.4%
- viability, T/C (second compound 0.00316 µM, first compound 0.00316 µM): 72.3%
- viability, T/C (second compound 0.00316 µM, first compound 0.01 µM): 22.8%
- viability, T/C [1]: 8.58%
- viability, T/C [2]: 6.85%
- viability, T/C (second compound 0.01 µM, first compound 0.000316 µM): 79.3%
- viability, T/C (second compound 0.01 µM, first compound 0.001 µM): 124%
- viability, T/C (second compound 0.01 µM, first compound 0.00316 µM): 54.2%
- viability, T/C (second compound 0.01 µM, first compound 0.01 µM): 15.6%
- viability, T/C [3]: 7.53%
- viability, T/C [4]: 7.07%
- viability, T/C (second compound 0.0316 µM, first compound 0.000316 µM): 76.6%
- viability, T/C (second compound 0.0316 µM, first compound 0.001 µM): 115%
- viability, T/C (second compound 0.0316 µM, first compound 0.00316 µM): 50.9%
- viability, T/C (second compound 0.0316 µM, first compound 0.01 µM): 14.1%
- viability, T/C [5]: 8.15%
- viability, T/C [6]: 5.8%
- viability, T/C (second compound 0.1 µM, first compound 0.000316 µM): 52.8%
- viability, T/C (second compound 0.1 µM, first compound 0.001 µM): 98.9%
- viability, T/C (second compound 0.1 µM, first compound 0.00316 µM): 58.2%
- viability, T/C (second compound 0.1 µM, first compound 0.01 µM): 14.5%
- viability, T/C [7]: 8.94%
- viability, T/C [8]: 5.94%
- viability, T/C (second compound 0.316 µM, first compound 0.000316 µM): 63.4%
- viability, T/C (second compound 0.316 µM, first compound 0.001 µM): 90.8%
- viability, T/C (second compound 0.316 µM, first compound 0.00316 µM): 49.3%
- viability, T/C (second compound 0.316 µM, first compound 0.01 µM): 14%
- viability, T/C [9]: 8.74%
- viability, T/C [10]: 6.6%
- viability, T/C (second compound 1 µM, first compound 0.000316 µM): 57.6%
- viability, T/C (second compound 1 µM, first compound 0.001 µM): 79.6%
- viability, T/C (second compound 1 µM, first compound 0.00316 µM): 53.8%
- viability, T/C (second compound 1 µM, first compound 0.01 µM): 15.2%
- viability, T/C [11]: 8.85%
- viability, T/C [12]: 5.88%

SMILES: CCC(CC)c1cc(NC2CCC(N)C2)n2nccc2n1 (stereo unspecified) + CCn1c(-c2cccnc2C(C)OC)c2c3cc(ccc31)N1CCOC(CC(NC(=O)C(C(C)C)N(C)C(=O)C3(F)CCN(C(=O)C#CC(C)(C)N(C)C)CC3)C(=O)N3CCCC(N3)C(=O)OCC(C)(C)C2)C1
- IC50 (second compound 0.000949 µM): 0.84 µM
- IC50 (second compound 0.003 µM): 1.32 µM
- IC50 (second compound 0.00949 µM): 0.793 µM
- IC50 (second compound 0.03 µM): 0.795 µM
- IC50 (second compound 0.0949 µM): 1.06 µM
- IC50 (second compound 0.3 µM): 0.629 µM
- viability, T/C (second compound 0.000949 µM, first compound 0.0316 µM): 105%
- viability, T/C (second compound 0.000949 µM, first compound 0.1 µM): 105%
- viability, T/C (second compound 0.000949 µM, first compound 0.316 µM): 87.2%
- viability, T/C (second compound 0.000949 µM, first compound 1 µM): 45.2%
- viability, T/C (second compound 0.000949 µM, first compound 3.16 µM): 2.1%
- viability, T/C (second compound 0.000949 µM, first compound 10 µM): 2.24%
- viability, T/C (second compound 0.003 µM, first compound 0.0316 µM): 101%
- viability, T/C (second compound 0.003 µM, first compound 0.1 µM): 94.5%
- viability, T/C (second compound 0.003 µM, first compound 0.316 µM): 72.7%
- viability, T/C (second compound 0.003 µM, first compound 1 µM): 66.2%
- viability, T/C (second compound 0.003 µM, first compound 3.16 µM): 2.87%
- viability, T/C (second compound 0.003 µM, first compound 10 µM): 1.93%
- viability, T/C (second compound 0.00949 µM, first compound 0.0316 µM): 123%
- viability, T/C (second compound 0.00949 µM, first compound 0.1 µM): 105%
- viability, T/C (second compound 0.00949 µM, first compound 0.316 µM): 86%
- viability, T/C (second compound 0.00949 µM, first compound 1 µM): 44.8%
- viability, T/C (second compound 0.00949 µM, first compound 3.16 µM): 2.14%
- viability, T/C (second compound 0.00949 µM, first compound 10 µM): 2.37%
- viability, T/C (second compound 0.03 µM, first compound 0.0316 µM): 106%
- viability, T/C (second compound 0.03 µM, first compound 0.1 µM): 85.5%
- viability, T/C (second compound 0.03 µM, first compound 0.316 µM): 97.8%
- viability, T/C (second compound 0.03 µM, first compound 1 µM): 38.5%
- viability, T/C (second compound 0.03 µM, first compound 3.16 µM): 2.21%
- viability, T/C (second compound 0.03 µM, first compound 10 µM): 2.43%
- viability, T/C (second compound 0.0949 µM, first compound 0.0316 µM): 95.2%
- viability, T/C (second compound 0.0949 µM, first compound 0.1 µM): 78.8%
- viability, T/C (second compound 0.0949 µM, first compound 0.316 µM): 91.1%
- viability, T/C (second compound 0.0949 µM, first compound 1 µM): 52.4%
- viability, T/C (second compound 0.0949 µM, first compound 3.16 µM): 2.89%
- viability, T/C (second compound 0.0949 µM, first compound 10 µM): 2.25%
- viability, T/C (second compound 0.3 µM, first compound 0.0316 µM): 80%
- viability, T/C (second compound 0.3 µM, first compound 0.1 µM): 68.8%
- viability, T/C (second compound 0.3 µM, first compound 0.316 µM): 81.8%
- viability, T/C (second compound 0.3 µM, first compound 1 µM): 31.9%
- viability, T/C (second compound 0.3 µM, first compound 3.16 µM): 2.89%
- viability, T/C (second compound 0.3 µM, first compound 10 µM): 3.28%
